Source: paper PMC6598531, “Appraisal of anti-protozoan activity of nitroaromatic benzenesulfonamides inhibiting carbonic anhydrases from Trypanosoma cruzi and Leishmania donovani” (Journal of Enzyme Inhibition and Medicinal Chemistry, 2019)
≈ marks a conversion by molar mass, not a printed value. Read-outs that look alike come from different tables or passages of the source.

Tests used:
[1] = tested on: L. amazonensis; assay: growth inhibition of L. amazonensis promastigotes (resazurin); type: cell-based; details: Leishmania amazonensis, 48 h; for MIC: promastigotes, 28 °C
[2] = tested on: L. infantum; assay: growth inhibition of L. infantum promastigotes (resazurin); type: cell-based; details: Leishmania infantum, 48 h; for MIC: promastigotes, 28 °C
[3] = in vitro; details: mouse, RAW 264.7 macrophages
[4] = tested on: T. cruzi Dm 28c; assay: growth inhibition of T. cruzi Dm28c epimastigotes (resazurin); type: cell-based; details: Trypanosoma cruzi, 48 h; for MIC: epimastigotes, 28 °C
[5] = tested on: T. cruzi Y; assay: growth inhibition of T. cruzi Y epimastigotes (resazurin); type: cell-based; details: Trypanosoma cruzi, 48 h, 28 °C
[6] = biological target: LdcCA (Leishmania infantum, UniProt A4HSV2); assay: biochemical
Sequence of LdcCA (A4HSV2 1-306): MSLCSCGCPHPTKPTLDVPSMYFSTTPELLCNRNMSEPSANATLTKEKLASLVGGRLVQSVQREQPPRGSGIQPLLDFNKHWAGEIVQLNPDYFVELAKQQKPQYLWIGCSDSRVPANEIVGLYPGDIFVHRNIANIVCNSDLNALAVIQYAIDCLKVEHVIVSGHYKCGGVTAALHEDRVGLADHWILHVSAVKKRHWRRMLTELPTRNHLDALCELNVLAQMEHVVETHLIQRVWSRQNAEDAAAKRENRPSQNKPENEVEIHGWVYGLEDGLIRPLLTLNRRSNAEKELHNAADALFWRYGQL

[7] = biological target: hCA I (Homo sapiens, UniProt P00915); assay: stopped flow CO2 hydrase assay, hCA I inhibition
Sequence of hCA I (P00915 whole entry): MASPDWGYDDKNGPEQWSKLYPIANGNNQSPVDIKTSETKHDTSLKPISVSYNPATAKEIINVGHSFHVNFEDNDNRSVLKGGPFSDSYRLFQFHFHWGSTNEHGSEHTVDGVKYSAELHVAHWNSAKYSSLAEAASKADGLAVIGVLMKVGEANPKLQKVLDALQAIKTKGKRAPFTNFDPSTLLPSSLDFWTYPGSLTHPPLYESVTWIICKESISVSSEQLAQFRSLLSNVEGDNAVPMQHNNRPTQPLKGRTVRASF

[8] = biological target: hCA II (Homo sapiens, UniProt P00918); assay: stopped flow CO2 hydrase assay, hCA II inhibition
[9] = concentration which reduced the number of promastigotes by 50%
[10] = read-out: KI hCA I, stopped flow CO2 hydrase assay, mean from three assays
[11] = read-out: KI hCA II, stopped flow CO2 hydrase assay, mean from three assays

IC50 [1, 9] [nM]	IC50 [2, 9] [nM]	IC50 ([4]; concentration which reduced the proliferation of epimastigotes by 50%) [nM]	SMILES	MIC [1] [µM]	MIC [2] [µM]	CC50 at 48 h [3] [nM]	MIC [4] [µM]	MIC [5] [µM]	SI (KI1/KI2) CA I/LdcCA [6]	SI (KI1/KI2) CA II/LdcCA [6]	Ki ([6]; read-out: KI LdCA) [nM]	Ki [7, 10] [nM]	Ki [8, 11] [nM]	Ki [6] [nM]	Ki [7] [nM]	Ki [8] [nM]
1650 ± 280	1770 ± 350		C[C@@H]1[C@H](O)[C@@H](C)/C=C/C=C/C=C/C=C/C=C/C=C/C=C/[C@H](O[C@@H]2O[C@H](C)[C@@H](O)[C@H](N)[C@@H]2O)C[C@@H]2O[C@](O)(C[C@@H](O)C[C@@H](O)[C@H](O)CC[C@@H](O)C[C@@H](O)CC(=O)O[C@H]1C)C[C@H](O)[C@H]2C(=O)O [Amp, amphotericin B, reference compound]	8 (≈ 7.39 µg/mL)	8 (≈ 7.39 µg/mL)	1000										
		16600 ± 1510	O=C(Cn1ccnc1[N+](=O)[O-])NCc1ccccc1 [Bzn, benznidazole, reference compound]			115000 ± 9480	32 (≈ 8.33 µg/mL)	32 (≈ 8.33 µg/mL)								
			NS(=O)(=O)c1ccc(O)c([N+](=O)[O-])c1 [Compound 4]	> 400	> 400	97600 ± 11100	> 256	> 256	4.3	1.1	210	910	240			
			NS(=O)(=O)c1cc([N+](=O)[O-])c(OC(=O)c2ccccc2)c([N+](=O)[O-])c1 [Compound 7]						1.0	0.2		4790	840	4680		
			Nc1cc(S(N)(=O)=O)cc([N+](=O)[O-])c1O [Compound 8, 3-amino-4-hydroxy-5-nitro-benzenesulfonamide]	> 400	> 400	> 256000	> 256	> 256	13.4	1.3	460	6180	610			
			NS(=O)(=O)c1cc(NC(=O)c2ccccc2)c(OC(=O)c2ccccc2)c([N+](=O)[O-])c1 [Compound 9]						0.4	0.1	3870	1380	390			
			NS(=O)(=O)c1cc(NC(=O)c2ccc(F)cc2)c(OC(=O)c2ccc(F)cc2)c([N+](=O)[O-])c1 [Compound 10]	> 400	> 400	180000 ± 21300	> 256	> 256	0.3	0.1	8490	2920	460			
			Cc1cc(C)[n+](-c2cc(S(N)(=O)=O)cc([N+](=O)[O-])c2O)c(C)c1 [Compound 11]	> 400	> 400	> 256000	> 256	> 256	>7.6	0.3	6570		1810		> 50000	
			NS(=O)(=O)c1cc(O)c(O)c([N+](=O)[O-])c1 [Compound 12]						15.9	1.6	390	6210	640			
			NS(=O)(=O)c1cc(NC(=O)Nc2ccccc2)c(O)c([N+](=O)[O-])c1 [Compound 13]						>47.2	2.6	1060		2780			
			NS(=O)(=O)c1cc(NC(=O)Nc2ccc(F)cc2)c(O)c([N+](=O)[O-])c1 [Compound 14]						5.5	0.5	980	5390	530			
			NS(=O)(=O)c1cc(NC(=O)Nc2ccc(C(F)(F)F)cc2)c(O)c([N+](=O)[O-])c1 [Compound 15]						2.2	0.1	2340	5200				240
			Cc1cc(NC(=O)Nc2cc(S(N)(=O)=O)cc([N+](=O)[O-])c2O)ccc1F [Compound 16]						2.6	0.1	2960	7580	210			
			NS(=O)(=O)c1cc(NC(=O)Nc2c(F)c(F)c(F)c(F)c2F)c(O)c([N+](=O)[O-])c1 [Compound 17]	> 400	> 400	> 256000	> 256	> 256	0.5	0.2	1360	690	270			
			COc1cccc(NC(=O)Nc2cc(S(N)(=O)=O)cc([N+](=O)[O-])c2O)c1 [Compound 18]	> 400	> 400	> 256000	> 256	> 256	8.6	5.4	950	8210	5150			
			NS(=O)(=O)c1cc(NC(=O)Nc2ccc3c(c2)OCO3)c(O)c([N+](=O)[O-])c1 [Compound 19]	> 400	> 400	173000 ± 10400	> 256	> 256	>24.6	2.1	2030		4330			
			Cc1cc(C)cc(NC(=O)Nc2cc(S(N)(=O)=O)cc([N+](=O)[O-])c2O)c1 [Compound 20]						4.5	0.2	1860	8330	450			
			NS(=O)(=O)c1cc(NC(=O)Nc2cc(C(F)(F)F)cc(C(F)(F)F)c2)c(O)c([N+](=O)[O-])c1 [Compound 21]	> 400	> 400	> 256000	> 256	> 256	1.6	0.5	3650	5990	1720			
			NS(=O)(=O)c1cc(NC(=O)NCCc2ccccc2)c(O)c([N+](=O)[O-])c1 [Compound 22]						10.8	3.6	860	9290	3080			
			NS(=O)(=O)c1cc(NC(=O)NCc2ccco2)c(O)c([N+](=O)[O-])c1 [Compound 23]						>49.0	2.5	1020		2530			
			CC(=O)OC[C@@H]1O[C@@H](OC(C)=O)[C@@H](NC(=O)Nc2cc(S(N)(=O)=O)cc([N+](=O)[O-])c2O)[C@H](OC(C)=O)[C@H]1OC(C)=O [Compound 24]	> 400	> 400	> 256000	> 256	> 256	1.6	0.5	3640	5670	1890			
			NS(=O)(=O)c1cc(NC(=O)N[C@@H]2C(O)O[C@@H](CO)[C@H](O)[C@H]2O)c(O)c([N+](=O)[O-])c1 (stereo partly shown) [Compound 25]						1.7	0.3	2970	4920	860			
